This is an account of results in patent publication US20230295201A1 (Gilead Sciences, Inc., priority 2020, published 2023).

Structures are written as SMILES. Like-named read-outs stand apart in the source and are kept apart here.

Holding throughout (assay type): cell-based
Assay [1] concerns Dengue 2, New Guinea strain (NGC). Nature of the assay: DENV-2 moDC EC50 (qPCR in human monocyte-derived dendritic cells). To be noted: Dengue virus, DENV2, Dendritic cell, moDCs. On the procedure: Human monocyte-derived dendritic cells (moDCs) were derived from CD14+ monocytes (AllCells) cultured in Human Mo-DC Differentiation medium containing GM-CSF and IL-4 (Miltenyi Biotec). On day 7, moDCs were harvested by mechanical disruption, washed and suspended in serum-free RPMI. moDCs were infected with Vero-derived Dengue 2, New Guinea strain (NGC) at a MOI=0.1 for two hours in serum-free RPMI with gentle agitation at 37° C. Cells were washed and resuspended in 10% serum-containing RPMI (Gibco, supplemented with sodium pyruvate, NEAA, Penicillin-Streptomycin). 10^5 cells were plated in triplicate in 96-well plates with compounds dispensed at graded doses (Hewlett-Packard D300 Digital Dispenser). All wells were normalized to 0.25% DMSO. At 48 hours, cells were washed with 1×PBS and all supernatants removed. Total RNA was extracted using RNEasy 96 plates (Qiagen) and used to generate first-strand cDNA using XLT cDNA 5× Supermix (QuantaBio). cDNA was used as a template in a Taqman qPCR duplex reaction specific to DENV2 viral and GAPDH gene expression. EC50 values were determined using Prism Graphpad software, with normalization to a positive control and no compound negative control wells.

For another assay, the system named is RSV A strain A2. Nature of the assay: RSV HAE EC50 (intracellular RSV RNA by real-time PCR in HAE cells). Conditions: human respiratory syncytial virus, 72 h, read-out: RSV HAE EC50. On the procedure:
HAE cells are cultured at the air-liquid interface and have an apical side that is exposed to the air and a basal side that is in contact with the medium. Prior to experimentation, HAE were removed from their agar-based shipping packaging and were acclimated to 37° C./5% CO2 overnight in 1 ml of HAE Assay medium (AIR-100-MM, Mattek Corp). HAE were prepared for infection by washing the apical surface twice with 400 μL of PBS (either utilizing direct pipetting methods or by running each transwell through a trough containing PBS) to remove the mucus layer. Apical chambers were drained of PBS and tapped gently onto absorbent material to remove as much PBS as possible. After washing, the cells were transferred to fresh HAE maintenance media containing 4-fold serially diluted compound, delivered to the basal side of the cell monolayer, and apically infected with 100 μL of a 1:600 dilution of RSV A strain A2 1000× stock (ABI, Columbia, MD, cat #10-124-000) in HAE assay medium for 3 hours at 37° C. in 5% CO2. The virus inoculum was removed and the apical surface of the cells was washed 3 times with PBS using either method previously described. The cells were then cultured in the presence of compound for 3 days at 37° C. Following the incubation, total RNA was extracted from the HAE cells using a MagMAX-96 Viral RNA isolation kit (Applied Biosystems, Foster City, CA, Cat #AM1836) and intracellular RSV RNA was quantified by real-time PCR. Approximately 25 ng of purified RNA was added to a PCR reaction mixture that contained 0.9 μM RSV N Forward and RSV N Reverse primers, 0.2 μM RSV N Probe and 1×Taqman RNA-to-Ct 1-Step Kit (Applied Biosystems, Foster City, CA, Cat #4392938). RNA levels were normalized using a Tagman GAPDH control primer set (Applied Biosystems, Foster City, CA, Cat #402869). Real-Time PCR Primers and Probe Used in the RSV A2 HAE Antiviral Assay: […]
A general note: Quantitative PCR measures a nucleic acid by following its amplification.

Another assay deals with HCV replicon 2A. Nature of the assay: HCV Rep 2A EC50 (replicon luciferase). Conditions: Hepatitis C virus, 72 h. The protocol: (§1) Compounds were serially diluted in ten steps of 1:3 dilutions in 384-well plates. All serial dilutions were performed in four replicates per compound within the same 384-well plate. […] To each well of a black polystyrene 384-well plate (Greiner Bio-one, Monroe, NC), 90 μL of cell culture medium (without Geneticin) containing 2000 suspended HCV replicon cells was added with a Biotek μFlow workstation. For compound transfer into cell culture plates, 0.4 μL of compound solution from the compound serial dilution plate was transferred to the cell culture plate on a Biomek FX workstation. The DMSO concentration in the final assay wells was 0.44%. The plates were incubated for 3 days at 37° C. with 5% CO2 and 85% humidity. The HCV replicon assay was a multiplex assay, able to assess both cytotoxicity and antireplicon activity from the same well. The CC50 assay was performed first. The media in the 384-well cell culture plate was aspirated, and the wells were washed four times with 100 μL of PBS each, using a Biotek ELX405 plate washer. A volume of 50 μL of a solution containing 400 nM calcein AM (Anaspec, Fremont, CA) in 1×PBS was added to each well of the plate with a Biotek μFlow workstation. The plate was incubated for 30 min at room temperature before the fluorescence signal (excitation 490 nm, emission 520 nm) was measured with a Perkin-Elmer Envision plate reader. The EC50 assay was performed in the same wells as the CC50 assay. The calcein-PBS solution in the 384-well cell culture plate was aspirated with a Biotek ELX405 plate washer. A volume of 20 μL of Dual-Glo luciferase buffer (Promega, Madison, WI) was added to each well of the plate with a Biotek μFlow Workstation. The plate was incubated for 10 min at room temperature. A volume of 20 μL of a solution containing a 1:100 mixture of Dual-Glo Stop & Glo substrate (Promega, Madison, WI) and Dual-Glo Stop & Glo buffer (Promega, Madison, WI) was added to each well of the plate with a Biotek μFlow Workstation. The plate was then incubated at room temperature for 10 min before the luminescence signal was measured with a Perkin-Elmer Envision Plate Reader.

Assay [2] relates to Dengue serotype 2 New Guinea C (NGC) strain. Nature of the assay: DENV-2 Huh-7 EC50 (qPCR in Huh7 cells). To be noted: Dengue virus, DENV2, Huh-7, 48 h. Put shortly: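 Huh7 cells infected 2 h at 37 °C with DENV-2 NGC at MOI 0.1, then plated with graded compound doses (0.25% DMSO) in triplicate. After 48 h, viral RNA quantified by duplex TaqMan RT-qPCR against GAPDH; EC50 normalized to positive control and no-compound wells.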

Another assay has as its system HCV replicon 1B. Nature of the assay: HCV Rep 1B EC50 (replicon luciferase). To be noted: Hepatitis C virus, 72 h. On the procedure:
as §1
On the technique in general: In antiviral work, replicon cells carry a viral genome segment that copies itself.

[3] abbreviates: read-out: HCV Rep 2A EC50, replicon cells, 3 days.
The mark [4] stands for this setting: read-out: HCV Rep 1B EC50, replicon cells, 3 days.
[5] abbreviates: replicon cells, 3 days, read-out: HCV Rep 2A EC50.
[6] abbreviates: replicon cells, 3 days, read-out: HCV Rep 1B EC50.

With `C[C@H](N[P@](=O)(OC[C@@]1(C#N)O[C@@H](c2ccc3c(N)ncnn23)[C@H](O)[C@@H]1O)Oc1ccccc1)C(=O)OC1CCCCC1` (single isomer, unassigned) [Example 6], the EC50 (usually the concentration at which the effect is half-maximal) in assay [1] (48 h) is above 6190 nM; with RSV A strain A2 (HAE), 20 nM; in the assay with HCV replicon 2A (setting [3]), 1270 nM; in assay [2], 1630 nM; in the assay with HCV replicon 1B (setting [4]), 793 nM.
Take `C[C@H](N[P@](=O)(OC[C@@]1(C#N)O[C@@H](c2ccc3c(N)ncnn23)[C@H](O)[C@@H]1O)Oc1ccccc1)C(=O)O[C@H]1CC[C@H](C(C)(C)C)CC1` (single isomer, unassigned) [Example 22]: the figures for the EC50 (in the assay with RSV A strain A2 (HAE); in assay [2]) were 19 nM and 665 nM, respectively.
Take `C[C@H](N[P@](=O)(OC[C@@]1(C#N)O[C@@H](c2ccc3c(N)ncnn23)[C@H](O)[C@@H]1O)Oc1ccccc1)C(=O)O[C@H]1CC[C@H](C(F)(F)F)CC1` (single isomer, unassigned) [Example 18]: the figures for the half-maximal effective concentration (EC50) in the assay on RSV A strain A2 (HAE), in the assay on HCV replicon 2A (setting [3]) and with HCV replicon 1B (setting [4]) were 27 nM, 1480 nM and 1110 nM, respectively.
With `CCCCCCCCCCCCCCCCCCOC[C@H](COP(=O)(O)OC[C@@]1(C#N)O[C@@H](c2ccc3c(N)ncnn23)[C@H](O)[C@@H]1O)OCc1ccccc1` [Example 96, ((2R,3S,4R,5S)-5-(4-aminopyrrolo[2,1-f][1,2,4]triazin-7-yl)-2-cyano-3,4-dihydroxytetrahydrofuran-2-yl)methyl ((R)-2-(benzyloxy)-3-(octadecyloxy)propyl) hydrogen phosphate], the EC50 is above 25000 nM in assay [1] (48 hours); 22400 nM with RSV A strain A2 (HAE cells, RSV A2, 3 days); 47300 nM in the assay with HCV replicon 2A (setting [5]); 30700 nM with HCV replicon 1B (setting [6]).
Consider `CCC(CC)COC(=O)[C@H](C)N[P@](=O)(OC[C@@]1(C#N)O[C@@H](c2ccc3c(N)ncnn23)[C@H](O)[C@@H]1O)Oc1ccccc1` (single isomer, unassigned) [Example 25], for which the EC50 in assay [1] (48 h) is 524 nM; in the assay with RSV A strain A2 (HAE), 152 nM; in the assay with HCV replicon 2A (setting [3]), 448 nM; in assay [2] it was 840 nM; in the assay on HCV replicon 1B (setting [4]), 443 nM.
Turning to `CCCCCCCCCCCCOC(=O)[C@H](C)NP(=O)(OC[C@@]1(C#N)O[C@@H](c2ccc3c(N)ncnn23)[C@H](O)[C@@H]1O)Oc1ccccc1` (stereo partly drawn) [Example 191, dodecyl ((((2R,3S,4R,5S)-5-(4-aminopyrrolo[2,1-f][1,2,4]triazin-7-yl)-2-cyano-3,4-dihydroxytetrahydrofuran-2-yl)methoxy)(phenoxy)phosphoryl)-L-alaninate], the EC50 in assay [1] (48 h) stood at 1070 nM; in the assay with RSV A strain A2 (HAE), 11 nM; in the assay on HCV replicon 2A (setting [3]) it was 34100 nM; in assay [2], 13300 nM; with HCV replicon 1B (setting [4]) it was 19700 nM.
Turning to `CCCCCCCCCCCC(=O)OCCNP(=O)(OC[C@@]1(C#N)O[C@@H](c2ccc3c(N)ncnn23)[C@H](O)[C@@H]1O)Oc1ccccc1` (mixture of isomers) [Example 181, 2-(((((2R,3S,4R,5S)-5-(4-aminopyrrolo[2,1-f][1,2,4]triazin-7-yl)-2-cyano-3,4-dihydroxytetrahydrofuran-2-yl)methoxy)(phenoxy)phosphoryl)amino)ethyl dodecanoate], the 50% effective concentration (EC50) with RSV A strain A2 (HAE) was 212 nM; in the assay with HCV replicon 2A (setting [3]) it was 1680 nM; in assay [2], 795 nM; in the assay on HCV replicon 1B (setting [4]) it was 861 nM.
As to `CCCCCCCCCCCCCCCCOCCCOP(=O)(O)OC[C@@]1(C#N)O[C@@H](c2ccc3c(N)ncnn23)[C@H](O)[C@@H]1O` [Example 149, ((2R,3S,4R,5S)-5-(4-aminopyrrolo[2,1-f][1,2,4]triazin-7-yl)-2-cyano-3,4-dihydroxytetrahydrofuran-2-yl)methyl (3-(hexadecyloxy)propyl) hydrogen phosphate], the EC50 in the assay on RSV A strain A2 (HAE cells, RSV A2, 3 days) is 188 nM; in the assay with HCV replicon 2A (setting [5]) it was above 44400 nM; in the assay on HCV replicon 1B (setting [6]) it was 31100 nM.
